# Test results published in publication PMC5914168 (ChemMedChem, 2017).
# Assays:
# GAK = settings: cited from earlier work
# [1] = molecular target: T1, N-terminal Nano Luciferase/GAK fusion (NL-GAK) in HEK293 cells (Homo sapiens, UniProt O14976); test: GAK nanoBRET cellular target engagement assay
# T1 sequence (O14976 1-1311): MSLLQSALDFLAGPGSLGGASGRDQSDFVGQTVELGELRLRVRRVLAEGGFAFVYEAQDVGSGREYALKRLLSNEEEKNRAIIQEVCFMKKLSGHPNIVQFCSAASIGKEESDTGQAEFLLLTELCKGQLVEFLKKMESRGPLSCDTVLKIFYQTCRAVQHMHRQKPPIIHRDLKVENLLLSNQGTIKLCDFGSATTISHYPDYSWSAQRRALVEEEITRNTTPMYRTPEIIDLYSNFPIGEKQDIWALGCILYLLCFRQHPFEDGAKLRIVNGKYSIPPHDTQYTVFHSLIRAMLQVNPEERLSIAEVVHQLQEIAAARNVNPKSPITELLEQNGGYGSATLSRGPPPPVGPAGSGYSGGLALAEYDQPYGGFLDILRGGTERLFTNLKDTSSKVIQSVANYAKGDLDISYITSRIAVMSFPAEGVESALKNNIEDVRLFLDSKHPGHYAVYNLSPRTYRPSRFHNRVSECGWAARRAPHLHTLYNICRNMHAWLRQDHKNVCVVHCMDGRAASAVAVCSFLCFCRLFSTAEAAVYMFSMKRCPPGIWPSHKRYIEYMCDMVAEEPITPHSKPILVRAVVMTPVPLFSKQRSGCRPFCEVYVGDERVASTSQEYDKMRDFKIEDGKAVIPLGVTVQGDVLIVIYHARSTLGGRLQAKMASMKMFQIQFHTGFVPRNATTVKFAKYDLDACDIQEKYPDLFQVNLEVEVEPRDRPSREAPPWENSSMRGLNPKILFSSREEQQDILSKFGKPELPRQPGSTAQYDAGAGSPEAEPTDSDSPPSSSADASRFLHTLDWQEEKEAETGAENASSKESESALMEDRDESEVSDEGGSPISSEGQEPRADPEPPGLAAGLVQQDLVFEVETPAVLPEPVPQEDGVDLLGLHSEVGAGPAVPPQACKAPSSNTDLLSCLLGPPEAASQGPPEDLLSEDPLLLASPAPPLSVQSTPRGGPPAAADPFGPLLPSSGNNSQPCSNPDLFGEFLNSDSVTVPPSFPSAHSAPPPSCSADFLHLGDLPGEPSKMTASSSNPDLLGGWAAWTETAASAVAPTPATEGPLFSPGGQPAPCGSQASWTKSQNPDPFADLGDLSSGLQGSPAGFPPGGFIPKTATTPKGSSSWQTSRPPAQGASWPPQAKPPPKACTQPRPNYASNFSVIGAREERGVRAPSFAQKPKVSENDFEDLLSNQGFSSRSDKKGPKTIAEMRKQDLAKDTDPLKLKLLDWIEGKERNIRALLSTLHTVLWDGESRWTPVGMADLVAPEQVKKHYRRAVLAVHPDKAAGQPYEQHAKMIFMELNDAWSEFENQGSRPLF
# [2] = molecular target: T2, kinases in SUM159 cell lysate (>240 protein kinases profiled) (Homo sapiens, UniProt O14976); test: Multiplexed inhibitor beads / mass spectrometry; type: binding; settings: SUM159 lysate, highest concentration (10 nM), 30 minutes on ice
# T2 sequence (O14976 1-1311): T1 sequence (O14976 1-1311)
# [3] = test system: kinases in SUM159 cell lysate (>240 protein kinases profiled); test: Multiplexed inhibitor beads / mass spectrometry; type: binding; settings: SUM159 cell lysate
# [4] = molecular target: STK16 kinase domain (13-305) (Homo sapiens, UniProt O75716); test: TR-FRET ligand binding displacement assay, STK16
# Chain of STK16 kinase domain (13-305) (O75716 13-305): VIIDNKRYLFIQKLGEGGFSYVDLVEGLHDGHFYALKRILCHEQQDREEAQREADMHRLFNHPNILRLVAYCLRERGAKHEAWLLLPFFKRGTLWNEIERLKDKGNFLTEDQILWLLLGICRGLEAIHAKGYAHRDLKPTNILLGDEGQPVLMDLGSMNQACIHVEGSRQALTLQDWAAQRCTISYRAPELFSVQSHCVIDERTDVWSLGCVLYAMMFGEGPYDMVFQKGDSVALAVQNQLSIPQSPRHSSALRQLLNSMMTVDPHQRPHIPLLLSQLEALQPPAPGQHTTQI
# [5] = molecular target: T3, GAK kinase domain (12-347) (Homo sapiens, UniProt O14976); test: TR-FRET ligand binding displacement assay, GAK
# T3 sequence (O14976 12-347): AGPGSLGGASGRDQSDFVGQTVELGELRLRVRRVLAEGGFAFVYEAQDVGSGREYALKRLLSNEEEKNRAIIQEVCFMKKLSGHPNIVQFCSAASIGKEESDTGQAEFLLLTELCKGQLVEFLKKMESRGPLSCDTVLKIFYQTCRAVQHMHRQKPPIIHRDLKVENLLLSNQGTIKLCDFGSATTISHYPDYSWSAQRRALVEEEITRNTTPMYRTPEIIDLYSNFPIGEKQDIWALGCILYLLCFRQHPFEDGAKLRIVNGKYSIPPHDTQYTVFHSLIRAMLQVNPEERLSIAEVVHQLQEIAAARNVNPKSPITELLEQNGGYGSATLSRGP
# [6] = molecular target: BMP2K kinase domain (38-345) (Homo sapiens, UniProt Q9NSY1); test: TR-FRET ligand binding displacement assay, BMP2K
# Chain of BMP2K kinase domain (38-345) (Q9NSY1 38-345): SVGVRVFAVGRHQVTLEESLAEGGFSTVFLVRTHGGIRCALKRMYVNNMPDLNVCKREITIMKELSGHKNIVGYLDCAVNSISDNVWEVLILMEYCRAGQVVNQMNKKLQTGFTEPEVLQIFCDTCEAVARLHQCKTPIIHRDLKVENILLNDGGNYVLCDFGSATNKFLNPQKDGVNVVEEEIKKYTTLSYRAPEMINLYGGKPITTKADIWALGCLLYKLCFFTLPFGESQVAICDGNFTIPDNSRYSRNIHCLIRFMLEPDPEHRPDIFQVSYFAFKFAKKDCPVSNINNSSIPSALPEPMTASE
# [7] = molecular target: AAK1 kinase domain (31-396) (Homo sapiens, UniProt Q2M2I8); test: TR-FRET ligand binding displacement assay, AAK1
# Chain of AAK1 kinase domain (31-396) (Q2M2I8 31-396): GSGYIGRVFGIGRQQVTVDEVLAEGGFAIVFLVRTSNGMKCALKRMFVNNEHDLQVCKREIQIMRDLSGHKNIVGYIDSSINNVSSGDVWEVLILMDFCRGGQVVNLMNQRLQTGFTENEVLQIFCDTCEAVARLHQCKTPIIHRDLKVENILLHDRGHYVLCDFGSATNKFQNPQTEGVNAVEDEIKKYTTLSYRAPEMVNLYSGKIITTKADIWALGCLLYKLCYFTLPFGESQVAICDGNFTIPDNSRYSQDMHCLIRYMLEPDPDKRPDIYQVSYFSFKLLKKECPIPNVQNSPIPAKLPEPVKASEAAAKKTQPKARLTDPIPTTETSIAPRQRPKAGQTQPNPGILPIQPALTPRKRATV
compound,measurement,setting,value
Cc1nc(Nc2ncc(C(=O)Nc3c(C)cccc3Cl)s2)cc(N2CCN(CCO)CC2)n1 [dasatinib],"off target activity on GAK, potency",GAK,low nanomolar range
C#Cc1cccc(Nc2ncnc3cc(OCCOC)c(OCCOC)cc23)c1 [erlotinib],"off target activity on GAK, potency",GAK,low nanomolar range
"COc1cc2nccc(Nc3cc(OC)c(OC)c(OC)c3)c2cc1OC [Compound 49, 6,7-Dimethoxy-N-(3,4,5-trimethoxyphenyl)quinolin-4-amine]",fold cellular potency increase,"[1]; nanoBRET, over the single methoxy substitutions 48 & 50",14–17 fold
same,GAK depletion in MIB/MS,[2],~10 fold
same,kinases bound in MIB/MS (kinome selectivity),[3],binding to only GAK and RIPK2
same,Ki,[4],> 100 µM
COc1cc(Nc2c(C#N)cnc3cc(OCCCN4CCN(C)CC4)c(OC)cc23)c(Cl)cc1Cl [bosutinib],"off target activity on GAK, potency",GAK,low nanomolar range
"COc1cc(Nc2ccnc3cc(F)cc(F)c23)cc(OC)c1OC [Compound 44, 5,7-Difluoro-N-(3,4,5-trimethoxyphenyl)quinolin-4-amine]",IC50,"[1]; NanoBRET GAK IC50, HEK293 cells, 8-point dose response, average of 2 experiments",4.4 µM
same,Ki,[5],0.14 µM
same,NAK selectivity (ratio of GAK Ki and Ki of nearest NAK family member),[5]; selectivity against the nearest NAK family member,>720
same,Ki,[6],> 100 µM
same,Ki,[7],> 100 µM
same,Ki,[4],> 100 µM
COc1cc2ncnc(Nc3ccc(F)c(Cl)c3)c2cc1OCCCN1CCOCC1 [gefitinib],"off target activity on GAK, potency",GAK,low nanomolar range
